Experiments:
PI3Kalpha = PI3Kalpha (Homo sapiens, UniProt P42336); assay: PI3K Biochemical Assays (PI3K-alpha assay); details: ATP consumption, luciferase-luciferin; 1 μM ATP, 10 μM PIP2
Description: PI3Kn activity was measured as the percent of ATP consumed following the kinase reaction using luciferase-luciferin-coupled chemiluminescence. Reactions were conducted in 384-well white, medium binding microtiter plates (Greiner). Kinase reactions were initiated by combining test compounds, ATP, substrate (PIP2), and kinase in a 20 μL volume in a buffer solution. The standard PI3Kalpha assay buffer was composed 50 mM Tris, pH 7.5, 1 mM EGTA, 10 mM MgCl2, 1 mM DTT and 0.03% CHAPS. The standard assay concentrations for enzyme, ATP, and substrate were 3 nM, 1 μM, and 10 μM, respectively. The reaction mixture was incubated at ambient temperature for approximately 2 h. Following the kinase reaction, a 10 μL aliquot of luciferase-luciferin mix (Promega Kinase-Glo) was added and the chemiluminescence signal measured using a Victor2 or EnVision (Perkin Elmer). Total ATP consumption was limited to 40-60% and IC50 values of control compounds correlate well with literature references. Substituting PI3Kα with PI3Krβ, PI3Kγ, or PI3Kδ, the inhibitory activity of the compounds for the other isoforms of PI3K were measured. For the PI3Kβ and PI3Kδ assays, enzyme concentrations were 10 nM and 4 nM, respectively. For the PI3Kγ assay, enzyme concentration was 40 nM, the incubation time was 1 h, and the concentration of MgCl2 in the assay buffer was 5 mM.

mTORC1 = mTORC1 (Homo sapiens, UniProt P42345); assay: mTOR/GbL/Raptor (mTORC1) ELISA Assay; format: biochemical; details: phosphorylation of 4E-BP1; 0.2 nM mTORC1, 10 μM ATP
Description: The measurement of mTORC1 enzyme activity was performed in an ELISA assay format following the phosphorylation of 4E-BP1 protein. All experiments were performed in the 384-well format. Generally, 0.5 μL DMSO containing varying concentrations of the test compound was mixed with 15 μL enzyme solution. Kinase reactions were initiated with the addition of 15 μL of substrates-containing solution. The assay conditions were as follows; 0.2 nM mTORC1, 10 μM ATP and 50 nM NHis-tagged 4E-BP1 in 20 mM Hepes, pH 7.2, 1 mM DTT, 50 mM NaCl, 10 mM MnCl2, 0.02 mg/mL BSA, 0.01% CHAPS, 50 mM β-glycerophosphate. Following an incubation of 120 minutes at ambient temperature, 20 μL of the reaction volume was transferred to a Ni-Chelate-coated 384-well plate. The binding step of the 4E-BP1 protein proceeded for 60 minutes, followed by washing 4 times each with 50 μL of Tris-buffered saline solution (TBS). Anti-phospho-4E-BP1 rabbit-IgG (20 μL, 1:5000) in 5% BSA-TBST (0.2% Tween-20 in TBS) was added and further incubated for 60 minutes. Incubation with a secondary HRP-tagged anti-IgG was similarly performed after washing off the primary antibody (4 washes of 50 μL). Following the final wash step with TBST, 20 μL of SuperSignal ELISA Femto (Pierce Biotechnology) was added and the luminescence measured using an EnVision plate reader.

Sequence of PI3Kalpha (P42336 whole entry): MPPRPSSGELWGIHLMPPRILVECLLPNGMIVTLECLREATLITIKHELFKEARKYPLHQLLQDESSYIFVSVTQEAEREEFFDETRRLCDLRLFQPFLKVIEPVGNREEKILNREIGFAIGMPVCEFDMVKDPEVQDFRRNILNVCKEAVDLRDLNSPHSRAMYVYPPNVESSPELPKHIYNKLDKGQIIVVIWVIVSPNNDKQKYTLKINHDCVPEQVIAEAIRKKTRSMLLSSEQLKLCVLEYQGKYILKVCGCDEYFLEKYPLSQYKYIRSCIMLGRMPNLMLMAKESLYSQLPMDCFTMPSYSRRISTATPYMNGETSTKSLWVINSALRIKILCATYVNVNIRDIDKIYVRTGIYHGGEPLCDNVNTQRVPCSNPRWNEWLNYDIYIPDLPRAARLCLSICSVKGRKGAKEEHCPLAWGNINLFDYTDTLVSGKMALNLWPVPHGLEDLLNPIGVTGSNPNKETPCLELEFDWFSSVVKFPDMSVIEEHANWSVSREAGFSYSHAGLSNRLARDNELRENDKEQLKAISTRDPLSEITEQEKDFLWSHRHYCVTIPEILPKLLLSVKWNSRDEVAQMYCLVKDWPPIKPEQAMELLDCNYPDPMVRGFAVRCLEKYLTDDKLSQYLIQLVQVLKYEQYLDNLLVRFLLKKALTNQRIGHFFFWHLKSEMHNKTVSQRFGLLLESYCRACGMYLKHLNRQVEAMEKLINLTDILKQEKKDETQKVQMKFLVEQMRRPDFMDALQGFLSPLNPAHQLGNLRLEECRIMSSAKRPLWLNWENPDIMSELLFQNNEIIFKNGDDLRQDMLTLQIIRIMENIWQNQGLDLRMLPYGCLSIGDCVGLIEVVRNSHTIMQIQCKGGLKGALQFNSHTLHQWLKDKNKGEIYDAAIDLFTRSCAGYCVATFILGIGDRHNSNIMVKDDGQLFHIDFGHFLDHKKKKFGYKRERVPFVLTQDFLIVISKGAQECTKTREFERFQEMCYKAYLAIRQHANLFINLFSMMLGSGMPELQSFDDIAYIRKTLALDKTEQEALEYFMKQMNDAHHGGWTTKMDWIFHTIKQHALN
Sequence of PI3Kalpha (P27986 whole entry partner): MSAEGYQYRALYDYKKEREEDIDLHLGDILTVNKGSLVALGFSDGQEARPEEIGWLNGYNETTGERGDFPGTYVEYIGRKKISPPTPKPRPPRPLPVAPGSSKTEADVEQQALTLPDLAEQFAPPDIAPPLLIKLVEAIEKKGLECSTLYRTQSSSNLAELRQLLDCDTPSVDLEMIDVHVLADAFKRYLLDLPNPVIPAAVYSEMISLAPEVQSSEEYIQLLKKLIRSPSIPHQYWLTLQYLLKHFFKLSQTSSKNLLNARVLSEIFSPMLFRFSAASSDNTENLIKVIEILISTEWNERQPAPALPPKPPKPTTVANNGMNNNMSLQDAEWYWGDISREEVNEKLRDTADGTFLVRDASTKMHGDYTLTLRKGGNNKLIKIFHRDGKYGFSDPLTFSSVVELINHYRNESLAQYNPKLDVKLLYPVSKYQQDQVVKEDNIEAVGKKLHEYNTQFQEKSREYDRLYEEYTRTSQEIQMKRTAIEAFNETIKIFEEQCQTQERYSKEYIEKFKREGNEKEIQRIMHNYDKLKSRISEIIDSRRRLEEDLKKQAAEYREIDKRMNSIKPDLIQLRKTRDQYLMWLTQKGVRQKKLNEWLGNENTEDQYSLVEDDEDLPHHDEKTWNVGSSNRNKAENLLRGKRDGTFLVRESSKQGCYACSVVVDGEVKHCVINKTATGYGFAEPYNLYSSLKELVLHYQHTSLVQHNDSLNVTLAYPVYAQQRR

Row | Compound | IC50 (PI3Kalpha) | IC50 (mTORC1)
1 | C=Cc1cnc(N)nc1N1CCOc2ccc(-c3cnc4sc(N)nc4c3)cc2C1 [Compound 34, 6-[4-(2-amino-5-ethenylpyrimidin-4-yl)-2,3,4,5-tetrahydro-1,4-benzoxazepin-7-yl][1,3]thiazolo[5,4-b]pyridin-2-amine] | ≤ 100 nM | ≤ 100 nM
2 | C=CCc1c(C)nc(N)nc1N1CCOc2ccc(-c3cnc4sc(N)nc4c3)cc2C1 [Compound 83, 6-[4-(2-amino-6-methyl-5-prop-2-en-1-ylpyrimidin-4-yl)-2,3,4,5-tetrahydro-1,4-benzoxazepin-7-yl][1,3]thiazoloJ-[5,4-b]pyridin-2-amine] | ≤ 100 nM | ≤ 100 nM
3 | COc1ccc2c(N3CCOc4ccc(-c5cnc6sc(N)nc6c5)cc4C3)nc(C)nc2c1 [Compound 26, 6-{4-[2-methyl-7-(methyloxy)quinazolin-4-yl]-2,3,4,5-tetrahydro-1,4-benzoxazepin-7-yl}[1,3]thiazolo[5,4-b]pyridin-2-amine] | ≤ 100 nM | 100 to 500 nM
4 | Nc1cc(N2CCOc3ccc(-c4cnc5sc(N)nc5c4)cc3C2)nc(N)n1 [Compound 80, 6-[7-(2-amino[1,3]thiazolo[5,4-b]pyridin-6-yl)-2,3-dihydro-1,4-benzoxazepin-4(5H)-yl]pyrimidine-2,4-diamine] | ≤ 100 nM | 100 to 500 nM
5 | CC1(C)CC(=O)c2sc(N3CCOc4ccc(-c5cnc6sc(N)nc6c5)cc4C3)nc2C1 [Compound 84, 2-[7-(2-amino[1,3]thiazolo[5,4-b]pyridin-6-yl)-2,3-dihydro-1,4-benzoxazepin-4(5H)-yl]-5,5-dimethyl-5,6-dihydro-1,3-benzothiazol-7(4H)-one] | 500 to 2500 nM | 100 to 500 nM
6 | C#Cc1c(C)nc(N)nc1N1CCOc2ccc(-c3cnc4sc(N)nc4c3)cc2C1 [Compound 74, 6-[4-(2-amino-5-ethynyl-6-methylpyrimidin-4-yl)-2,3,4,5-tetrahydro-1,4-benzoxazepin-7-yl][1,3]thiazolo[5,4-b]pyridin-2-amine] | ≤ 100 nM | ≤ 100 nM
7 | Cc1nc(CN(C)C)nc(N2CCOc3ccc(-c4cnc5sc(N)nc5c4)cc3C2)c1F [Compound 66, 6-(4-{2-[(dimethylamino)methyl]-5-fluoro-6-methylpyrimidin-4-yl)-1,3,4,5-tetrahydro-1,4-benzoxazepin-7-yl)[1,3]thiazolo[5,4-b]pyridin-2-amine] | 100 to 500 nM | 500 to 2500 nM
8 | COC(=O)Cc1c(C)nc(CN(C)C)nc1N1CCOc2ccc(-c3cnc4sc(N)nc4c3)cc2C1 [Compound 14, methyl {4-[7-(2-amino[1,3]thiazolo[5,4-b]pyridin-6-yl)-2,3-dihydro-1,4-benzoxazepin-4(5H)-yl]-2-[(dimethylamino)methyl]-6-methylpyrimidin-5-yl}acetate] | ≤ 100 nM | 100 to 500 nM
9 | Nc1nc2cc(-c3ccc4c(c3)CN(c3ncc(C(F)(F)F)c(N)n3)CCO4)cnc2s1 [Compound 81, 6-{4-[4-amino-5-(trifluoromethyl)pyrimidin-2-yl]-2,3,4,5-tetrahydro-1,4-benzoxazepin-7-yl}[1,3]thiazolo[5,4-b]pyridin-2-amine] | 100 to 500 nM | 100 to 500 nM
10 | CC(C)(C)c1cnc(N)nc1N1CCOc2ccc(-c3cnc4sc(N)nc4c3)cc2C1 [Compound 47, 6-{4-[2-amino-5-(1,1-dimethylethyl)pyrimidin-4-yl]-2,3,4,5-tetrahydro-1,4-benzoxazepin-7-yl}[1,3]thiazolo[5,4-b]pyridin-2-amine] | 500 to 2500 nM | 500 to 2500 nM
11 | N#Cc1cnc(N)nc1N1CCOc2ccc(-c3cnc4sc(N)nc4c3)cc2C1 [Compound 79, 2-amino-4-[7-(2-amino[1,3]thiazolo[5,4-b]pyridin-6-yl)-2,3-dihydro-1,4-benzoxazepin-4(5H)-yl]pyrimidine-5-carbonitrile] | ≤ 100 nM | 100 to 500 nM

Further lines, results first:

Row | IC50 (PI3Kalpha) | IC50 (mTORC1) | Compound
12 | ≤ 100 nM | ≤ 100 nM | Cc1nc(N)nc(N2CCOc3ccc(-c4cnc5sc(N)nc5c4)cc3C2)c1-c1cccc(F)c1 [Compound 40, 6-{4-[2-amino-5-(3-fluorophenyl)-6-methylpyrimidin-4-yl]-2,3,4,5-tetrahydro-1,4-benzoxazepin-7-yl}[1,3]thiazolo[5,4-b]pyridin-2-amine]
13 | ≤ 100 nM | ≤ 100 nM | CC#Cc1c(C)nc(N)nc1N1CCOc2ccc(-c3cnc4sc(N)nc4c3)cc2C1 [Compound 77, 6-[4-(2-amino-6-methyl-5-prop-1-yn-1-ylpyrimidin-4-yl)-2,3,4,5-tetrahydro-1,4-benzoxazepin-7-yl][1,3]thiazolo[5,4-b]pyridin-2-amine]
14 | ≤ 100 nM | ≤ 100 nM | CCCc1c(C)nc(N)nc1N1CCOc2ccc(-c3cnc4sc(N)nc4c3)cc2C1 [Compound 32]
15 | ≤ 100 nM | 100 to 500 nM | Cc1cnc(N)nc1N1CCOc2ccc(-c3cnc4sc(N)nc4c3)cc2C1 [Compound 35, 6-[4-(2-amino-5-methylpyrimidin-4-yl)-2,3,4,5-tetrahydro-1,4-benzoxazepin-7-yl][1,3]thiazolo[5,4-b]pyridin-2-amine]
16 | ≤ 100 nM | ≤ 100 nM | CC(C)c1cnc(N)nc1N1CCOc2ccc(-c3cnc4sc(N)nc4c3)cc2C1 [Compound 95, 6-{4-[2-amino-5-(1-methylethyl)pyrimidin-4-yl]-2,3,4,5-tetrahydro-1,4-benzoxazepin-7-yl}[1,3]thiazolo[5,4-b]pyridin-2-amine]
17 |  | ≤ 100 nM | CNc1nc(C)c(C(C)C)c(N2CCOc3ccc(-c4cnc5sc(N)nc5c4)cc3C2)n1 [Compound 92, 6-{4-[6-methyl-2-(methylamino)-5-(1-methylethyl)pyrimidin-4-yl]-2,3,4,5-tetrahydro-1,4-benzoxazepin-7-yl}[1,3]thiazolo[5,4-b]pyridin-2-amine]
18 | 100 to 500 nM | 500 to 2500 nM | Cc1nc(CN(C)C)nc(N2CCOc3ccc(-c4cnc5sc(N)nc5c4)cc3C2)c1CC(=O)O [Compound 18, {4-[7-(2-amino[1,3]thiazolo[5,4-b]pyridin-6-yl)-2,3-dihydro-1,4-benzoxazepin-4(5H)-yl]-2-[(dimethylamino)methyl]-6-methylpyrimidin-5-yl}acetic acid]
19 | ≤ 100 nM | ≤ 100 nM | Cc1nc(CNS(C)(=O)=O)nc(N2CCOc3ccc(-c4cnc5sc(N)nc5c4)cc3C2)c1C(C)C [Compound 21, N-({4-[7-(2-amino[1,3]thiazolo[5,4-b]pyridin-6-yl)-2,3-dihydro-1,4-benzoxazepin-4(5H)-yl]-6-methyl-5-(1-methylethyl)pyrimidin-2-yl}methyl)methanesulfonamide]
20 | ≤ 100 nM | 100 to 500 nM | Cc1c(N)nc(N)nc1N1CCOc2ccc(-c3cnc4sc(N)nc4c3)cc2C1 [Compound 73, 6-[7-(2-amino[1,3]thiazolo[5,4-b]pyridin-6-yl)-2,3-dihydro-1,4-benzoxazepin-4(5H)-yl]-5-methylpyrimidine-2,4-diamine]
21 | ≤ 100 nM | ≤ 100 nM | Cc1nc(CN(C)C)nc(N2CCOc3ccc(-c4cnc5sc(N)nc5c4)cc3C2)c1CCCF [Compound 38, 6-(4-{2-[(dimethylamino)methyl]-5-(3-fluoropropyl)-6-methylpyrimidin-4-yl}-2,3,4,5-telrahydro-1,4-benzoxazepin-7-yl)[1,3]thiazolo[5,4-b]pyridin-2-amine]
22 | ≤ 100 nM | ≤ 100 nM | C=CCc1c(C)nc(CN(C)C)nc1N1CCOc2ccc(-c3cnc4sc(N)nc4c3)cc2C1 [Compound 70, 6-(4-{2-[(dimethylamino)methyl]-6-methyl-5-prop-2-en-1-ylpyrimidin-4-yl}-2,3,4,5-tetrahydro-1,4-benzoxazepin-7-yl)[1,3]thiazolo[5,4-b]pyridin-2-amine]
23 | ≤ 100 nM | ≤ 100 nM | C=Cc1c(Cl)nc(N)nc1N1CCOc2ccc(-c3cnc4sc(N)nc4c3)cc2C1 [Compound 11, 6-[4-(2-amino-6-chloro-5-ethenylpyrimidin-4-yl)-2,3,4,5-tetrahydro-1,4-benzoxazepin-7-yl][1,3]thiazolo[5,4-b]pyridin-2-amine]
24 | 500 to 2500 nM | 500 to 2500 nM | Nc1cc(N2CCOc3ccc(-c4cnc5sc(N)nc5c4)cc3C2)ccn1 [Compound 94, 6-[4-(2-aminopyridin-4-yl)-2,3,4,5-tetrahydro-1,4-benzoxazepin-7-yl][1,3]thiazolo[5,4-b]pyridin-2-amine]
